According to ChEMBL document CHEMBL4507272 (2021):

Columns and labels:
[1] = biological target: Aurora kinase A (Homo sapiens) (UniProt O14965); details: Compound concentration 1000.0 nM
[2] = biological target: Tyrosine-protein kinase receptor UFO (Homo sapiens) (UniProt P30530); details: Compound concentration 1000.0 nM
[3] = biological target: Cyclin-dependent kinase 13 (Homo sapiens) (UniProt Q14004); details: Compound concentration 1000.0 nM
[4] = biological target: Dual specificity protein kinase CLK2 (Homo sapiens) (UniProt P49760); details: Compound concentration 1000.0 nM
[5] = biological target: Death-associated protein kinase 2 (Homo sapiens) (UniProt Q9UIK4); details: Compound concentration 1000.0 nM
[6] = biological target: Myotonin-protein kinase (Homo sapiens) (UniProt Q09013); details: Compound concentration 1000.0 nM
[7] = biological target: Serine/threonine-protein kinase MRCK gamma (Homo sapiens) (UniProt Q6DT37); details: Compound concentration 1000.0 nM
[8] = system: Epidermal growth factor receptor (Homo sapiens), P00533 [T790M]; details: Compound concentration 1000.0 nM
[9] = biological target: Eukaryotic translation initiation factor 2-alpha kinase 1 (Homo sapiens) (UniProt Q9BQI3); details: Compound concentration 1000.0 nM
[10] = biological target: Glycogen synthase kinase-3 alpha (Homo sapiens) (UniProt P49840); details: Compound concentration 1000.0 nM
[11] = biological target: Glycogen synthase kinase-3 beta (Homo sapiens) (UniProt P49841); details: Compound concentration 1000.0 nM
[12] = biological target: Homeodomain-interacting protein kinase 4 (Homo sapiens) (UniProt Q8NE63); details: Compound concentration 1000.0 nM
[13] = biological target: Insulin-like growth factor 1 receptor (Homo sapiens) (UniProt P08069); details: Compound concentration 1000.0 nM
[14] = biological target: Tyrosine-protein kinase ITK/TSK (Homo sapiens) (UniProt Q08881); details: Compound concentration 1000.0 nM
[15] = system: Mast/stem cell growth factor receptor Kit (Homo sapiens), P10721 [A829P]; details: Compound concentration 1000.0 nM
[16] = system: Mast/stem cell growth factor receptor Kit (Homo sapiens), P10721 [V559D]; details: Compound concentration 1000.0 nM
[17] = biological target: Tyrosine-protein kinase Lyn (Homo sapiens) (UniProt P07948); details: Compound concentration 1000.0 nM
[18] = biological target: Mitogen-activated protein kinase kinase kinase 1 (Homo sapiens) (UniProt Q13233); details: Compound concentration 1000.0 nM
[19] = biological target: Mitogen-activated protein kinase kinase kinase 3 (Homo sapiens) (UniProt Q99759); details: Compound concentration 1000.0 nM
[20] = biological target: Serine/threonine-protein kinase MARK2 (Homo sapiens) (UniProt Q7KZI7); details: Compound concentration 1000.0 nM
[21] = biological target: MAP/microtubule affinity-regulating kinase 3 (Homo sapiens) (UniProt P27448); details: Compound concentration 1000.0 nM
[22] = biological target: MAP/microtubule affinity-regulating kinase 4 (Homo sapiens) (UniProt Q96L34); details: Compound concentration 1000.0 nM
[23] = biological target: Dual specificity mitogen-activated protein kinase kinase 4 (Homo sapiens) (UniProt P45985); details: Compound concentration 1000.0 nM
[24] = biological target: Muscle, skeletal receptor tyrosine-protein kinase (Homo sapiens) (UniProt O15146); details: Compound concentration 1000.0 nM
[25] = system: Phosphatidylinositol 4,5-bisphosphate 3-kinase catalytic subunit alpha isoform (Homo sapiens), P42336 [E542K]; details: Compound concentration 1000.0 nM
[26] = system: Phosphatidylinositol 4,5-bisphosphate 3-kinase catalytic subunit alpha isoform (Homo sapiens), P42336 [E545A]; details: Compound concentration 1000.0 nM
[27] = biological target: cAMP-dependent protein kinase catalytic subunit beta (Homo sapiens) (UniProt P22694); details: Compound concentration 1000.0 nM
[28] = biological target: Serine/threonine-protein kinase PknB (Mycobacterium tuberculosis) (UniProt P9WI81); details: Compound concentration 1000.0 nM
[29] = biological target: Serine/threonine-protein kinase PLK1 (Homo sapiens) (UniProt P53350); details: Compound concentration 1000.0 nM
[30] = biological target: Interferon-induced, double-stranded RNA-activated protein kinase (Homo sapiens) (UniProt P19525); details: Compound concentration 1000.0 nM
[31] = biological target: Ribosomal protein S6 kinase alpha-1 (Homo sapiens) (UniProt Q15418); details: Compound concentration 1000.0 nM
[32] = biological target: Ribosomal protein S6 kinase alpha-6 (Homo sapiens) (UniProt Q9UK32); details: Compound concentration 1000.0 nM
[33] = biological target: Mitogen-activated protein kinase kinase kinase 7 (Homo sapiens) (UniProt O43318); details: Compound concentration 1000.0 nM
[34] = biological target: Tyrosine-protein kinase receptor Tie-1 (Homo sapiens) (UniProt P35590); details: Compound concentration 1000.0 nM
[35] = biological target: BDNF/NT-3 growth factors receptor (Homo sapiens) (UniProt Q16620); details: Compound concentration 1000.0 nM
[36] = biological target: Non-receptor tyrosine-protein kinase TYK2 (Homo sapiens) (UniProt P29597); details: Compound concentration 1000.0 nM
[37] = biological target: Serine/threonine-protein kinase VRK2 (Homo sapiens) (UniProt Q86Y07); details: Compound concentration 1000.0 nM
[38] = biological target: Serine/threonine-protein kinase 32C (Homo sapiens) (UniProt Q86UX6); details: Compound concentration 1000.0 nM
[39] = biological target: Serine/threonine-protein kinase 25 (Homo sapiens) (UniProt O00506); details: Compound concentration 1000.0 nM
[40] = biological target: Tyrosine-protein kinase ZAP-70 (Homo sapiens) (UniProt P43403); details: Compound concentration 1000.0 nM
[41] = biological target: 5-hydroxytryptamine receptor 1D (Homo sapiens) (UniProt P28221); details: Compound concentration 10.0 uM
[42] = biological target: 5-hydroxytryptamine receptor 2C (Homo sapiens) (UniProt P28335); details: Compound concentration 10.0 uM
[43] = biological target: 5-hydroxytryptamine receptor 7 (Homo sapiens) (UniProt P34969); details: Compound concentration 10.0 uM
[44] = biological target: Mu-type opioid receptor (Homo sapiens) (UniProt P35372); details: Compound concentration 10.0 uM
[45] = biological target: Histamine H2 receptor (Homo sapiens) (UniProt P25021); details: Compound concentration 10.0 uM

Chain of Mu-type opioid receptor (Homo sapiens) (P35372 whole entry): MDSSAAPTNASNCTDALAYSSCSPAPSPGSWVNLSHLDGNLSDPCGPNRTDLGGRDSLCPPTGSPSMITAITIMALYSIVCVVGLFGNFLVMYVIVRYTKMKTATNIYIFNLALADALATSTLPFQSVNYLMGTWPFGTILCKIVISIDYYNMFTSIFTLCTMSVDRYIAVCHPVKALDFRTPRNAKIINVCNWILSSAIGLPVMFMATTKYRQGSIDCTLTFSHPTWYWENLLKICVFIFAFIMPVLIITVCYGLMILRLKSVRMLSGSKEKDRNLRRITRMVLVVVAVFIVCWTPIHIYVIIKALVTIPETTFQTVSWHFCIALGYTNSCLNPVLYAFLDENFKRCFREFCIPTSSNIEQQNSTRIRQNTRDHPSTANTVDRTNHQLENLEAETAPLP
Chain of Dual specificity protein kinase CLK2 (Homo sapiens) (P49760 whole entry, looked up): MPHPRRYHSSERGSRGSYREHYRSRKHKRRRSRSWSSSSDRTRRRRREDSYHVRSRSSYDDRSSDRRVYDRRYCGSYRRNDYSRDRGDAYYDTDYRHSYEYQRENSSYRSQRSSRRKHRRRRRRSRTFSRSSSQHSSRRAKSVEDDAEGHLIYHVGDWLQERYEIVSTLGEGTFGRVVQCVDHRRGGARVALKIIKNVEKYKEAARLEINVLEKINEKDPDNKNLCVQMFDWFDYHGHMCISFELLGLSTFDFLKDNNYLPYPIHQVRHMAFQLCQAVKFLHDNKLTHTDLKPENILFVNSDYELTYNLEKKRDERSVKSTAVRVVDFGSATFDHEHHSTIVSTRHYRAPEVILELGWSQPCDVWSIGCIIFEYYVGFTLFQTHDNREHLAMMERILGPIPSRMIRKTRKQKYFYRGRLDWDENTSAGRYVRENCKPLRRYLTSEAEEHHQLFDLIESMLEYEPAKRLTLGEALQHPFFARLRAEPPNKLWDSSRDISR
Chain of Serine/threonine-protein kinase PLK1 (Homo sapiens) (P53350 whole entry): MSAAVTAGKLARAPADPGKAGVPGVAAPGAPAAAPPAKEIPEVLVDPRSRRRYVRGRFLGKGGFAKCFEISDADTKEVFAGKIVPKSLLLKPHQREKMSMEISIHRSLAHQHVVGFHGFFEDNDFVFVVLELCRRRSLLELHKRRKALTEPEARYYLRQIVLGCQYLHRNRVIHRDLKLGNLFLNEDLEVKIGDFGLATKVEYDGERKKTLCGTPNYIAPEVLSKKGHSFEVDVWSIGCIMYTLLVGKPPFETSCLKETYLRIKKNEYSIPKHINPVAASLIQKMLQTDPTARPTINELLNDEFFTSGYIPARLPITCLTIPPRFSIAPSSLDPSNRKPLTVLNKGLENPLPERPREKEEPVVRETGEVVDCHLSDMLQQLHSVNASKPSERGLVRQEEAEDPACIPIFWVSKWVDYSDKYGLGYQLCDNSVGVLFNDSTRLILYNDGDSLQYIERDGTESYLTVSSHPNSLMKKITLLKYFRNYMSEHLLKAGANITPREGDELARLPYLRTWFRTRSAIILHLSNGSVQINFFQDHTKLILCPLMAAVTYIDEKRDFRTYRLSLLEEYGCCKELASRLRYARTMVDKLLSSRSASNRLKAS
Chain of BDNF/NT-3 growth factors receptor (Homo sapiens) (Q16620 32-822 limits assumed): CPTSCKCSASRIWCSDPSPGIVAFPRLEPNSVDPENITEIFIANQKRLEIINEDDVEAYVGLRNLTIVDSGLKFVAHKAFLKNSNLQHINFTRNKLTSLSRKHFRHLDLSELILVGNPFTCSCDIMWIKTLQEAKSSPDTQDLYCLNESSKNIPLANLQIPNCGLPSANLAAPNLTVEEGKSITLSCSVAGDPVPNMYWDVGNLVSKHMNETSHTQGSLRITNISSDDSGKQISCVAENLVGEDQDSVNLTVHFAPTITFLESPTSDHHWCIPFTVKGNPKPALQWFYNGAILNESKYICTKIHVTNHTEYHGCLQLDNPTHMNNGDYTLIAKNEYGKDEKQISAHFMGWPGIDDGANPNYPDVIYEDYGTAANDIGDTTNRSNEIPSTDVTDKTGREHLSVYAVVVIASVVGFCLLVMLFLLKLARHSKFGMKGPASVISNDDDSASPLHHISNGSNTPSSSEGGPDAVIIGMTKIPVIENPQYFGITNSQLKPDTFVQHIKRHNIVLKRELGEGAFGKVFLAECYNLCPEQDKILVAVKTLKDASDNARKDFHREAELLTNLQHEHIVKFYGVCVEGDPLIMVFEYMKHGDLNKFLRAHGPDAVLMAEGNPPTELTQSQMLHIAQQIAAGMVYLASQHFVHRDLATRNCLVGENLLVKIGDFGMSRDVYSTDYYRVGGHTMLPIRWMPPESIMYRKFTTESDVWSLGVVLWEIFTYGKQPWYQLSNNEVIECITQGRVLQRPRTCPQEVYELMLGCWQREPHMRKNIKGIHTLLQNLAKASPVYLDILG
Chain of Serine/threonine-protein kinase 32C (Homo sapiens) (Q86UX6 whole entry): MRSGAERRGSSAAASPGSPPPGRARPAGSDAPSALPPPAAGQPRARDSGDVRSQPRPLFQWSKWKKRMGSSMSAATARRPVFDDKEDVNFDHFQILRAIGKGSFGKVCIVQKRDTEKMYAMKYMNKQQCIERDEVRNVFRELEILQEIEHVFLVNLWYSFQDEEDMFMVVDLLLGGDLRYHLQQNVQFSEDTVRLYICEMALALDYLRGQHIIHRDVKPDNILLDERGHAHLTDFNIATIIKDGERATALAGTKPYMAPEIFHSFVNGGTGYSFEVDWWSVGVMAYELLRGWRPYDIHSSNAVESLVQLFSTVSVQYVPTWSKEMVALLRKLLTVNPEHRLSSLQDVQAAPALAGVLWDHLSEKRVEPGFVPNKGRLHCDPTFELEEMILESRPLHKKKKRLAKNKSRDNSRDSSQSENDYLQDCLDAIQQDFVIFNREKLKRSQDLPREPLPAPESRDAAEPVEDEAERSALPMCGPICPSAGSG
Chain of Phosphatidylinositol 4,5-bisphosphate 3-kinase catalytic subunit alpha isoform (Homo sapiens), P42336 [E545A] (P42336 whole entry E545A, canonical isoform): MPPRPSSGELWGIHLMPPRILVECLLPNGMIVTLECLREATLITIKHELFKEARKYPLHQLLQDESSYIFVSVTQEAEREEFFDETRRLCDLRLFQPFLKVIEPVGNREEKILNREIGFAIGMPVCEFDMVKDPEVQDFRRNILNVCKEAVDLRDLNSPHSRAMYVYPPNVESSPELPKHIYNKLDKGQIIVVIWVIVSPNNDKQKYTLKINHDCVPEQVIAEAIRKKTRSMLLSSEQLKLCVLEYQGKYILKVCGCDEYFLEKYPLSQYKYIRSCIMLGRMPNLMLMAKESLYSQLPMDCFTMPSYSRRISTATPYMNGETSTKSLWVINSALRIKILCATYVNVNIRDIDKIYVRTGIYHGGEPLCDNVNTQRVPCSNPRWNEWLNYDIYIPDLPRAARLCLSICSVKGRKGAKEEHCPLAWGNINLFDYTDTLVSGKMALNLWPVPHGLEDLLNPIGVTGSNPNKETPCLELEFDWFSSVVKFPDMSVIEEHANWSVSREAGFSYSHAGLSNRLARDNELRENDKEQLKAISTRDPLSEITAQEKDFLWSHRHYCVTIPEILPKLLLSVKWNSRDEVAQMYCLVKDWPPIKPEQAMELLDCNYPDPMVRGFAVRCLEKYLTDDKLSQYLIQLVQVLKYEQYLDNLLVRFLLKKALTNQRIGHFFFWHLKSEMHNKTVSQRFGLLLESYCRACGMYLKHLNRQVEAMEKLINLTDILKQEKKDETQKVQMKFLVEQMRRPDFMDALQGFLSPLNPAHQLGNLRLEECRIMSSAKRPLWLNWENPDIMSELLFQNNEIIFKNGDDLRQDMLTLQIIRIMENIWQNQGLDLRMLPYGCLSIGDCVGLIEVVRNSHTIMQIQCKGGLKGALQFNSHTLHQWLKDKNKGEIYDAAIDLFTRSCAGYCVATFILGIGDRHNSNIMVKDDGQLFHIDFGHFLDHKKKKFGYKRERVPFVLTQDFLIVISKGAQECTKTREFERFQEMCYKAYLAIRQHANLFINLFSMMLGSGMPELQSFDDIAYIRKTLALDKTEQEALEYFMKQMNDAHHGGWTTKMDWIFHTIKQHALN
Chain of MAP/microtubule affinity-regulating kinase 4 (Homo sapiens) (Q96L34 whole entry): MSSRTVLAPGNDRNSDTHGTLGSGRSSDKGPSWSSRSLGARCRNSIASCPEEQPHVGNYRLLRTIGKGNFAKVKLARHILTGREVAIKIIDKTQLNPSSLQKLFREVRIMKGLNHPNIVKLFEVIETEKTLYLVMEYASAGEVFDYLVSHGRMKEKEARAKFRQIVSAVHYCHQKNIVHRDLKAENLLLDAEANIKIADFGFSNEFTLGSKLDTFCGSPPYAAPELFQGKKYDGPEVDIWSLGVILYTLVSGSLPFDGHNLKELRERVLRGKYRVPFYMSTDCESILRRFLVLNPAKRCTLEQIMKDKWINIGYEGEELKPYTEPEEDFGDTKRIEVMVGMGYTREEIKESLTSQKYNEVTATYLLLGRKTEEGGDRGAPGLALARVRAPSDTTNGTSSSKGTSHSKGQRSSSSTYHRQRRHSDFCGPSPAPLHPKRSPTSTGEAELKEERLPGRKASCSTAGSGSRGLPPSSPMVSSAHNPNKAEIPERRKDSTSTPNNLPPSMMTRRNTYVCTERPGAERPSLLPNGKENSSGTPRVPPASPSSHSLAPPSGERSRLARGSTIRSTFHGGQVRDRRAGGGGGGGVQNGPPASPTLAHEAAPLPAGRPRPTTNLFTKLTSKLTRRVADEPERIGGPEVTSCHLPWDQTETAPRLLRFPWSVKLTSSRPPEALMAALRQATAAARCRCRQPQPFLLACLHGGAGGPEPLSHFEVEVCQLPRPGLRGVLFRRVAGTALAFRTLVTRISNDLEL
Chain of Dual specificity mitogen-activated protein kinase kinase 4 (Homo sapiens) (P45985 whole entry): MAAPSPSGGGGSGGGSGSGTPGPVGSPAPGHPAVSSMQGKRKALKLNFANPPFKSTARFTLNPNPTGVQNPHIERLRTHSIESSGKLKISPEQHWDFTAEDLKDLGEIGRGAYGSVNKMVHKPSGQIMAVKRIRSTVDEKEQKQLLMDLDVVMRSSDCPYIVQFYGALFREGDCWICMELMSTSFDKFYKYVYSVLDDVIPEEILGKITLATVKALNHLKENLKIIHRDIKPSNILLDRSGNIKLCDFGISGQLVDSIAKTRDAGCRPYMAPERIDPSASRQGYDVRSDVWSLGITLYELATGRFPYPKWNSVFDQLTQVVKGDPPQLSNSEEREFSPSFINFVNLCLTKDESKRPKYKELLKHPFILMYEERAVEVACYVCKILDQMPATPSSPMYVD

Question: How did the residual activity [1] turn out when `CC(=O)C1=C(C)N(c2cccc(C(F)(F)F)c2)C(=O)N[C@@H]1c1ccc(C#N)nc1` [BAY-678] was run?
Answer: The residual activity was 83.9%.

Question: What about the residual activity [2] of the same molecule?
Answer: The residual activity was 100%.

Question: What about the residual activity [3] of the same molecule?
Answer: Its residual activity is 100%.

Question: And the residual activity [4]?
Answer: Its residual activity is 100%.

Question: What about the residual activity [5] of the same molecule?
Answer: The residual activity was 79.2%.

Question: What about the residual activity [6] of the same molecule?
Answer: The residual activity was 86.5%.

Question: And the residual activity [7]?
Answer: Its residual activity is 79.3%.

Question: And the residual activity [8]?
Answer: The residual activity was 67.2%.

Question: And the residual activity [9]?
Answer: The residual activity was 100%.

Question: And the residual activity [10]?
Answer: Its residual activity is 95%.

Question: And the residual activity [11]?
Answer: Its residual activity is 100%.

Question: What about the residual activity [12] of the same molecule?
Answer: Its residual activity is 100%.

Question: What about the residual activity [13] of the same molecule?
Answer: The residual activity was 100%.

Question: What about the residual activity [14] of the same molecule?
Answer: Its residual activity is 90.4%.

Question: What about the residual activity [15] of the same molecule?
Answer: The residual activity was 80.8%.

Question: What about the residual activity [16] of the same molecule?
Answer: The residual activity was 100%.

Question: And the residual activity [17]?
Answer: The residual activity was 100%.

Question: And the residual activity [18]?
Answer: Its residual activity is 100%.

Question: And the residual activity [19]?
Answer: The residual activity was 100%.

Question: What about the residual activity [20] of the same molecule?
Answer: Its residual activity is 100%.

Question: And the residual activity [21]?
Answer: Its residual activity is 100%.

Question: What about the residual activity [22] of the same molecule?
Answer: The residual activity was 100%.

Question: What about the residual activity [23] of the same molecule?
Answer: Its residual activity is 98.1%.

Question: What about the residual activity [24] of the same molecule?
Answer: Its residual activity is 100%.

Question: And the residual activity [25]?
Answer: The residual activity was 100%.

Question: What about the residual activity [26] of the same molecule?
Answer: The residual activity was 75.6%.

Question: What about the residual activity [27] of the same molecule?
Answer: The residual activity was 48.7%.

Question: What about the residual activity [28] of the same molecule?
Answer: Its residual activity is 82.7%.

Question: And the residual activity [29]?
Answer: Its residual activity is 100%.

Question: And the residual activity [30]?
Answer: The residual activity was 83.4%.

Question: What about the residual activity [31] of the same molecule?
Answer: The residual activity was 91.5%.

Question: What about the residual activity [32] of the same molecule?
Answer: Its residual activity is 100%.

Question: And the residual activity [33]?
Answer: The residual activity was 100%.

Question: And the residual activity [34]?
Answer: The residual activity was 89.9%.

Question: What about the residual activity [35] of the same molecule?
Answer: Its residual activity is 98.1%.

Question: What about the residual activity [36] of the same molecule?
Answer: The residual activity was 91.3%.

Question: What about the residual activity [37] of the same molecule?
Answer: The residual activity was 77.6%.

Question: And the residual activity [38]?
Answer: The residual activity was 94.1%.

Question: What about the residual activity [39] of the same molecule?
Answer: The residual activity was 89.9%.

Question: And the residual activity [40]?
Answer: Its residual activity is 88.1%.

Question: And the inhibition [41]?
Answer: The inhibition was 10.9%.

Question: And the inhibition [42]?
Answer: Its inhibition is -2.88%.

Question: And the inhibition [43]?
Answer: The inhibition was 3.93%.

Question: What about the inhibition [44] of the same molecule?
Answer: The inhibition was -5.41%.

Question: And the inhibition [45]?
Answer: The inhibition was 14.5%.
